Data as given in PubChem BioAssay AID256 (DTP/NCI, 2004).
Where “and” joins values, the source holds several entries; their conditions need not be identical. Identical values can stand only once. Toxic doses and inconclusive results are not listed. The calls were made as follows: active = survival T/C of 150% or more; inactive = T/C below 125% in these data.

System: CD2F1 mice, L1210 leukemia ip, survival T/C
Assay: NCI In Vivo Anticancer Drug Screen. Data for tumor model L1210 Leukemia (intraperitoneal) in CD2F1 (CDF1) mice
Settings: higher = longer survival
In short: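 Tumor-bearing mice (transplanted tumor) were split into treated and vehicle control groups, and the measured endpoint of each treated group was divided by that of its vehicle controls.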

[1] = endpoint: mean survival time, dose: 100.0 mg/kg/injection, schedule: Q01DX009 (ip), vehicle: saline with Tween-80
[2] = endpoint: median survival time, dose: 50.0 mg/kg/injection, schedule: Q01DX005 (ip), vehicle: saline
[3] = endpoint: median survival time, dose: 100.0 mg/kg/injection, schedule: Q01DX005 (ip), vehicle: saline
[4] = endpoint: median survival time, dose: 200.0 mg/kg/injection, schedule: Q01DX005 (ip), vehicle: saline
[5] = endpoint: mean survival time, dose: 100.0 mg/kg/injection, schedule: Q04DX003 (ip), vehicle: saline with Tween-80
[6] = endpoint: mean survival time, dose: 200.0 mg/kg/injection, schedule: Q01DX009 (ip), vehicle: saline with Tween-80
[7] = endpoint: mean survival time, dose: 200.0 mg/kg/injection, schedule: Q04DX003 (ip), vehicle: saline with Tween-80
[8] = endpoint: mean survival time, dose: 400.0 mg/kg/injection, schedule: Q01DX009 (ip), vehicle: saline with Tween-80
[9] = endpoint: mean survival time, dose: 400.0 mg/kg/injection, schedule: Q04DX003 (ip), vehicle: saline with Tween-80
[10] = endpoint: mean survival time, dose: 75.0 mg/kg/injection, schedule: Q04DX002 (ip), vehicle: saline with Tween-80
[11] = endpoint: mean survival time, dose: 150.0 mg/kg/injection, schedule: Q04DX002 (ip), vehicle: saline with Tween-80
[12] = endpoint: mean survival time, dose: 300.0 mg/kg/injection, schedule: Q04DX002 (ip), vehicle: saline with Tween-80

Measured: T/C

CC(=O)OCC1OC(OC(C)=O)C(NC(=O)N(CCSCCCl)N=O)C(OC(C)=O)C1OC(C)=O (configuration not stated)
inactive: endpoint: mean survival time, dose: 0.78 mg/kg/injection, schedule: Q01DX001 (ip), vehicle: water 96 % of control | endpoint: mean survival time, dose: 1.56 mg/kg/injection, schedule: Q01DX001 (ip), vehicle: water 102 % of control | endpoint: mean survival time, dose: 3.12 mg/kg/injection, schedule: Q01DX001 (ip), vehicle: water 106 % of control | endpoint: mean survival time, dose: 6.25 mg/kg/injection, schedule: Q01DX001 (ip), vehicle: distilled water + Tween-80 106 % of control | endpoint: mean survival time, dose: 6.25 mg/kg/injection, schedule: Q01DX001 (ip), vehicle: water 106 % of control

CCc1cc2c(cc1C(=O)/C=C\c1cccc3ccccc13)C(C)(C)CCC2(C)C
inactive: endpoint: mean survival time, dose: 6.25 mg/kg/injection, schedule: Q01DX009 (ip), vehicle: saline with Tween-80 94 % of control | endpoint: mean survival time, dose: 12.5 mg/kg/injection, schedule: Q01DX009 (ip), vehicle: saline with Tween-80 86 % of control | endpoint: mean survival time, dose: 25.0 mg/kg/injection, schedule: Q01DX009 (ip), vehicle: saline with Tween-80 93 % of control

CNC(=S)NNc1ccccc1Cl
inactive: endpoint: mean survival time, dose: 12.5 mg/kg/injection, schedule: Q01DX009 (ip), vehicle: other 98 % of control | endpoint: mean survival time, dose: 25.0 mg/kg/injection, schedule: Q01DX009 (ip), vehicle: other 94 % of control | endpoint: mean survival time, dose: 50.0 mg/kg/injection, schedule: Q01DX009 (ip), vehicle: other 88 % of control | endpoint: mean survival time, dose: 100.0 mg/kg/injection, schedule: Q01DX009 (ip), vehicle: other 104 % of control | endpoint: mean survival time, dose: 200.0 mg/kg/injection, schedule: Q01DX009 (ip), vehicle: other 104 % of control

c1ccc(-c2nc(-c3ccccc3)n3nc4c(c3c2-c2ccccc2)CCCCCC4)cc1
inactive: endpoint: mean survival time, dose: 100.0 mg/kg/injection, schedule: Q01DX001 (ip), vehicle: saline 112 % of control | endpoint: mean survival time, dose: 200.0 mg/kg/injection, schedule: Q01DX001 (ip), vehicle: saline 108 % of control | endpoint: mean survival time, dose: 400.0 mg/kg/injection, schedule: Q01DX001 (ip), vehicle: saline 87 % of control

CCN(CCN(C)C(C)(C)C(C)(C)C)C(=O)C(O)(c1ccccc1)c1ccccc1
inactive: endpoint: mean survival time, dose: 50.0 mg/kg/injection, schedule: Q01DX009 (ip), vehicle: saline with Tween-80 103 % of control | [1] 110 % of control

Cc1cn2ccccc2c[n+]1=O
inactive: endpoint: mean survival time, dose: 5.0 mg/kg/injection, schedule: Q04DX003 (ip), vehicle: saline with Tween-80 103 % of control | endpoint: mean survival time, dose: 10.0 mg/kg/injection, schedule: Q04DX003 (ip), vehicle: saline with Tween-80 108 % of control | endpoint: mean survival time, dose: 20.0 mg/kg/injection, schedule: Q04DX003 (ip), vehicle: saline with Tween-80 97 % of control

COc1ccc(NS(=O)(=O)c2ccc(NC(C)=O)cc2)cc1
inactive: endpoint: mean survival time, dose: 100.0 mg/kg/injection, schedule: Q01DX001 (ip), vehicle: Klucel (hydroxypropylcellulose) (HPC) 104 % of control | endpoint: mean survival time, dose: 100.0 mg/kg/injection, schedule: Q01DX009 (ip), vehicle: Klucel (hydroxypropylcellulose) (HPC) 97 % of control | endpoint: mean survival time, dose: 200.0 mg/kg/injection, schedule: Q01DX001 (ip), vehicle: Klucel (hydroxypropylcellulose) (HPC) 96 % of control | endpoint: mean survival time, dose: 200.0 mg/kg/injection, schedule: Q01DX009 (ip), vehicle: Klucel (hydroxypropylcellulose) (HPC) 105 % of control | endpoint: mean survival time, dose: 400.0 mg/kg/injection, schedule: Q01DX001 (ip), vehicle: Klucel (hydroxypropylcellulose) (HPC) 98 % of control | endpoint: mean survival time, dose: 400.0 mg/kg/injection, schedule: Q01DX009 (ip), vehicle: Klucel (hydroxypropylcellulose) (HPC) 96 % of control

CCCCNCCC(=O)c1ccc(Cl)cc1
inactive: endpoint: mean survival time, dose: 25.0 mg/kg/injection, schedule: Q04DX003 (ip), vehicle: saline with Tween-80 98 % of control | endpoint: mean survival time, dose: 50.0 mg/kg/injection, schedule: Q04DX003 (ip), vehicle: saline with Tween-80 98 % of control

O=C1Cc2c(nc[nH]c2=O)N1
inactive: [2] 101 % of control | [3] 97 % of control | [4] 92 % of control

CCSCCCO
inactive: endpoint: mean survival time, dose: 75.0 mg/kg/injection, schedule: Q04DX003 (ip), vehicle: saline 95 % of control | endpoint: mean survival time, dose: 150.0 mg/kg/injection, schedule: Q04DX003 (ip), vehicle: saline 97 % of control | endpoint: mean survival time, dose: 300.0 mg/kg/injection, schedule: Q04DX003 (ip), vehicle: saline 103 % of control

N#C[CH2][Sn]([I])([c]1ccccc1)[c]1ccccc1
inactive: endpoint: mean survival time, dose: 0.39 mg/kg/injection, schedule: Q01DX009 (ip), vehicle: saline 103 % of control | endpoint: mean survival time, dose: 0.78 mg/kg/injection, schedule: Q01DX009 (ip), vehicle: saline 100 % of control

CCOC(=O)C(C#N)(CCC#N)CCC#N
inactive: [1] 94 % of control | [5] 100 % of control | [6] 98 % of control | [7] 102 % of control | [8] 94 % of control | [9] 100 % of control

CCOC(=O)Cc1cccc(CC(O)(c2ccccc2)c2ccccc2)n1
inactive: [1] 100 % of control | endpoint: mean survival time, dose: 100.0 mg/kg/injection, schedule: Q04DX003 (ip), vehicle: saline 92 % of control | [6] 98 % of control | endpoint: mean survival time, dose: 200.0 mg/kg/injection, schedule: Q04DX003 (ip), vehicle: saline 90 % of control | [8] 100 % of control | endpoint: mean survival time, dose: 400.0 mg/kg/injection, schedule: Q04DX003 (ip), vehicle: saline 87 % of control

O=C(CCO)CC(=O)CCc1ccccc1Cl
inactive: [5] 97 % of control | [7] 103 % of control | [9] 91 % of control

O=C(Nc1cccc(O)c1)C1CC1
inactive: endpoint: mean survival time, dose: 100.0 mg/kg/injection, schedule: Q01DX001 (ip), vehicle: saline with Tween-80 105 % of control | endpoint: mean survival time, dose: 200.0 mg/kg/injection, schedule: Q01DX001 (ip), vehicle: saline with Tween-80 94 % of control

Cc1cc(Nc2ccccc2)nc(C)n1
inactive: endpoint: mean survival time, dose: 12.5 mg/kg/injection, schedule: Q04DX002 (ip), vehicle: saline with Tween-80 111 % of control | endpoint: mean survival time, dose: 25.0 mg/kg/injection, schedule: Q04DX002 (ip), vehicle: saline with Tween-80 114 % of control

O=C(NNc1cccc(Cl)c1)C(O)C(O)C(O)C(O)CO (configuration not stated)
inactive: endpoint: mean survival time, dose: 50.0 mg/kg/injection, schedule: Q01DX009 (ip), vehicle: saline 93 % of control | endpoint: mean survival time, dose: 100.0 mg/kg/injection, schedule: Q01DX009 (ip), vehicle: saline 108 % of control | endpoint: mean survival time, dose: 200.0 mg/kg/injection, schedule: Q01DX009 (ip), vehicle: saline 96 % of control

OCC1OC(n2cnc3c(Nc4ccccc4)ncnc32)C(O)C1O (configuration not stated)
inactive: endpoint: mean survival time, dose: 12.5 mg/kg/injection, schedule: Q01DX005 (ip), vehicle: distilled water + Tween-80 102 % of control | endpoint: mean survival time, dose: 25.0 mg/kg/injection, schedule: Q01DX005 (ip), vehicle: distilled water + Tween-80 100 % of control | endpoint: mean survival time, dose: 50.0 mg/kg/injection, schedule: Q01DX005 (ip), vehicle: distilled water + Tween-80 100 % of control | endpoint: mean survival time, dose: 100.0 mg/kg/injection, schedule: Q01DX005 (ip), vehicle: distilled water + Tween-80 94 % of control | endpoint: mean survival time, dose: 200.0 mg/kg/injection, schedule: Q01DX005 (ip), vehicle: distilled water + Tween-80 98 % of control

N#CCSc1ncnc2nc[nH]c12
inactive: endpoint: mean survival time, dose: 15.0 mg/kg/injection, schedule: Q01DX009 (ip), vehicle: saline 95 % of control and 107 % of control | endpoint: mean survival time, dose: 30.0 mg/kg/injection, schedule: Q01DX009 (ip), vehicle: saline 110 % of control and 112 % of control | endpoint: mean survival time, dose: 60.0 mg/kg/injection, schedule: Q01DX009 (ip), vehicle: saline 110 % of control | endpoint: median survival time, dose: 30.0 mg/kg/injection, schedule: Q01DX009 (ip), vehicle: saline 100 % of control | endpoint: median survival time, dose: 60.0 mg/kg/injection, schedule: Q01DX009 (ip), vehicle: saline 122 % of control

O=C(Cc1ccccc1)c1ccc(O)cc1
inactive: [5] 100 % of control | [7] 103 % of control | [9] 111 % of control

CC1Cc2c3ccc4ccccc4c3cc3cccc1c23 (configuration not stated) (tested in a mixture with another compound)
inactive: [10] 105 % of control | [11] 105 % of control | [12] 97 % of control

COC1=c2\cccc\c2=N\C(OC)=c2\cccc\c2=N\1
inactive: [5] 101 % of control | [7] 101 % of control | [9] 98 % of control

CC(C)(O)c1cc(Cl)c(C#N)c(Cl)c1
inactive: endpoint: mean survival time, dose: 37.5 mg/kg/injection, schedule: Q04DX002 (ip), vehicle: saline with Tween-80 109 % of control | [10] 102 % of control | [11] 102 % of control | [12] 93 % of control

Cc1cn(C2OC(CO)C(O)C2Cl)c(=O)nc1N (configuration not stated)
inactive: endpoint: median survival time, dose: 12.5 mg/kg/injection, schedule: Q01DX005 (ip), vehicle: saline 101 % of control | endpoint: median survival time, dose: 25.0 mg/kg/injection, schedule: Q01DX005 (ip), vehicle: saline 104 % of control | [2] 104 % of control | [3] 101 % of control | [4] 96 % of control
